# Measured values from patent US20070254882A1, “Sulfamide Derivatives and Pharmaceutical Composition for Upregulation of Lipid Metabolism Comprising Same” (CRYSTAL GENOMICS, INC., priority 2004, published 2007).
# Columns and labels:
# [1] = target: T1, human PPAR α (Homo sapiens, UniProt Q07869); assay: Exogeneous PPAR α agonist assay (GAL4 DNA binding domain/PPAR α ligand binding domain, luciferase) in 293T cells; type: cell-based; set-up: scale not given here; settings: 25 μM compound, 48 hours, luciferase activity increase relative to the control
# T1 construct: expressed in transfected cells; host or cells: HepG2 (ATCC HB-8065) or 293T cells (ATCC CRL-1573)
# T1 sequence (Q07869 239-466 limits assumed): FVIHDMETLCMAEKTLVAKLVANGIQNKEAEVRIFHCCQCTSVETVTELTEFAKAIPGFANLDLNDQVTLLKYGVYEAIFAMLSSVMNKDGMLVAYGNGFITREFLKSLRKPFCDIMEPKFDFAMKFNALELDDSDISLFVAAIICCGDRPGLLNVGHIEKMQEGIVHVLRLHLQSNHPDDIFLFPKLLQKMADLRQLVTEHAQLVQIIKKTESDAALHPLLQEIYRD
# Outline: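 HepG2 or 293T cells (2×10^4/well) lipofectamine-transfected 3 hours with PPAR α, UAS firefly-luciferase and Renilla-luciferase constructs. Compounds then added at 25 μM final and incubated 48 hours at 37° C. PPAR α activation measured as dual firefly/Renilla luciferase luminescence.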
# [2] = test system: ob/ob mice; assay: Anti-obesity test: feed intake in ob/ob mice; type: in vivo; settings: 100 mg/kg oral twice a day, first week of the test, P<0.005, FIG. 1a
# Experimental: (§1) In order to evaluate the anti-obesity activity of the inventive compound, B6.V-Lepob/J mice (laboratory animal team of Korea Research Institute of Chemical Technology) were used for tests and lean mice as a control. Ob/ob mice are model animals for insulin-independent diabetes, suitable for studying the effect of an anti-obesity drug.
# (§2) 42 mice weighing 38.6±1.4 g were selected randomly from a pool of ob/ob mice (7-9 weeks old), and divided into groups of 7 mice each. The test was carried out at a constant temperature (24±0.5° C.) and humidity (55±5%) using ventilation system (10-12 times/hour), under a specific pathogen free (SPF) condition created in an automatic on-off cycle of 12 hours.
# (§3) The groups were divided to a control group treated only with an excipient, a positive control group treated with fenofibrate, and test groups treated with each of the compounds of Examples 5, 62 and 65, at dosage 100 mg/10 ml/kg body weight. Each of the test and control compounds was diluted with 0.5% CMC to a concentration to match the above dosage, and administered orally using a syringe into the stomach twice a day (9:00 and 18:00) for a period of 4 weeks, and the following characteristics were measured.
# 1) General Symptoms and Observation of Dead Animal
# The conditions, behavioral changes, addictive symptoms and the death rate were observed constantly during the test period.
# [3] = test system: ob/ob mice; assay: Anti-obesity test: lipid metabolism-related materials and glucose in blood of ob/ob mice; type: in vivo; settings: 28 days; for GLU (glucose) / HDL (HDL-cholesterol) / LDL (LDL-cholesterol) / NEFA (free fatty acid) / TG (triglyceride): 100 mg/kg oral twice a day, fasted 16 hours, plasma
# Experimental: as §1, §2, §3
# 3) Measurement of Lipid Metabolism-Related Materials and Insulin Concentration in Blood
# 28 days after the administration, experimental mice were fasted for 16 hours, and the concentrations of lipid metabolism-related materials such as triglyceride, free fatty acid and cholesterol, and insulin in blood were measured. Specifically, a blood sample was collected from the ocular venous plexus of each mouse and centrifuged to separate plasma. The glucose (GLU), HDL-cholesterol (HDL), LDL-cholesterol (LDL), triglyceride (TG) and free fatty acid (NEFA) levels were measured by enzymatic assay using 2 kinds of Selectra (Vital Lab), an automatic biochemical analyzer, and the insulin concentration was measured by ELISA using an insulin detection kit (Shibayagi).
# [4] = test system: ob/ob mice; assay: Oral glucose tolerance test (OGTT) in ob/ob mice; type: in vivo; settings: for total changes in the glucose concentration represented by AUC compared to the control group: 0-120 min, P<0.05, P<0.005 and P<0.01, FIG. 3b; for glucose concentration during the fast compared to the control group: ob/ob mice, 28 days, fasted 16 hours, P<0.05, FIG. 3c
# Experimental: as §1, §2, §3
# 4) Oral Glucose Tolerance Test (OGTT)
# 28 days after the administration, each of the experimental mice was fasted for 16 hours, 2 g/kg of glucose was administered thereto, a blood sample was collected from the ocular venous plexus thereof at 0, 15, 30, 60 and 120 min from the administration, and the glucose concentration and AUC (area under the curve, Skrumsager et al., J Clin Pharmacol. 43, 1244-1256, 2003) were determined.
# [5] = test system: ob/ob mice; assay: Anti-obesity test: dissection, fat weights in ob/ob mice; type: in vivo; settings: ob/ob mice after completing all tests
# Experimental: as §1, §2, §3
# After completing all tests, each of the mice in test treated with the compounds of Examples 5 and 62 and the positive control group treated with fenofibrate was sacrificed, the whole blood, liver, muscle and white adipose tissue thereof were extracted. White adipose tissued was divided into visceral fat and subcutaneous fat, and the amounts of the total fats and liver tissue were weighed separately.
# [6] = target: T1, human PPAR α; assay: Exogeneous PPAR α agonist assay (GAL4 DNA binding domain/PPAR α ligand binding domain, luciferase) in HepG2 cells; type: cell-based; settings: 25 μM compound, 48 hours, luciferase activity increase relative to the control
# Experimental: Step 1) Exogeneous PPAR α Agonist Assay
# Cross-activation assay of the compounds of Examples 1 to 134 against human PPAR α was carried out using a DNA construct of PPAR α including its ligand binding domain and GAL4 DNA binding domain (Sher et al., Biochemistry 32, 5598-5604, 1993) to analyze whether any of the compounds binds to the ligand binding domain of PPAR α expressed by the construct to affect the PPAR α activity. When the GAL4 DNA binding domainm which is fused with PPAR α ligand binding domain, binds to UAS (upstream activation sequence) of firefly-luciferase, the luciferase is expressed. Therefore, the effect of each of the compounds of Examples on PPAR α activation can be evaluated by analyzing the activation of luciferase.
# Specifically, 2×10^4 of HepG2 (ATCC HB-8065) or 293T cells (ATCC CRL-1573) were aliquotted into each well of a 96-well plate and cultured for overnight at 37° C. in a CO2 incubator (culture condition: DMEM, 10% FBS and 1% antibiotics).
# The transformation of PPAR α DNA was traced as follows. First, a mixture of the following ingredients in amounts per well; Solution A (Promega) containing 50 ng of full length human PPAR α DNA, 50 ng of firefly-luciferase construct, 5 ng of Renilla-luciferase construct, 1.0 μl of PLUS™ reagent, and 8.3 μl of a serum-free medium containing no antibiotics; was prepared and kept at room temperature for 15 min. Solution B, which contained 0.5 μl of Lipofectamine™ reagent and 9.5 μl of serum-free medium without antibiotics per well, and Solution C, which contained 50 μl of serum-free medium per well), were prepared. Solutions A, B and C were mixed together to prepare lipofectamin-DNA complex, and the mixture was kept at room temperature for 15 min. Single layer of cells on each well of a 96-well plate were washed with serum-free DMEM, 70 μl of lipofectamine-DNA complex prepared above was added thereto, the plate was incubated at 37° C. in a 5% CO2 incubator for 3 hours to transform the cells, and […] of a diluted solution of each of the compounds of Examples 1 to 134 per well was added to each well to a final concentration 25 μM, and incubated at 37° C. in a CO2 incubator for 48 hours. Then, the medium was removed, 50 μl of passive lysis buffer (Promega) was added thereto, and the plate was shook at room temperature for 20 min to lysis cells. 40 μl of Luciferase Assay reagent of Dual Luciferase Kit […] per 20 μl of cell lysis buffer was added to the plate, followed by reacting at 20° C. for 8 seconds, and 40 μl of Stop & Glo reagent (Promega) as a stop solution was added thereto to quench the reaction. The luminescence intensities of F-luciferase and R-luciferase were measured with MicroLumat Plus (Berthord Technology).
Compound,Activity at 25 μM Step 1 293T cell [1],GLU (glucose) [3] [mg/dL],HDL (HDL-cholesterol) [3] [mg/dL],LDL (LDL-cholesterol) [3] [mg/dL],NEFA (free fatty acid) [3],TG (triglyceride) [3] [mg/dL],Activity at 25 μM Step 1 HepG2 cell [6],other results
"Cc1oc(-c2ccc(C(F)(F)F)cc2)nc1CCOc1cccc(CN(CC(=O)O)S(=O)(=O)N(C)C)c1 [Example 65, [N—(N,N-dimethylamino)sulfonyl-N-[3-[2-[2-(4-trifluoromethylphenyl)-5-methyloxazol-4-yl]ethoxy]benzyl]amino]acetic acid]",1,158.8 ± 44.0,321.4 ± 31.8,33.0 ± 9.3,"1,006 ± 203 UEq/l",45.9 ± 4.7,,"daily feed intake compared to the control group [2]: significantly reduced; GLU concentration compared to the control or positive control group [3]: much lower; HDL concentration [3]: high; total changes in the glucose concentration represented by AUC compared to the control group ([4]; 2 g/kg glucose): much lower; glucose concentration at 30 and 60 min after the glucose administration compared to the control group ([4]; 2 g/kg glucose, P<0.01, P<0.05, FIG. 3a): significantly low; glucose concentration during the fast compared to the control group [4]: significantly low"
"Cc1oc(-c2ccc(C(F)(F)F)cc2)nc1COc1cccc(CN(CC(=O)O)S(=O)(=O)N(C)C)c1 [Example 5, [N—(N,N-dimethylamino)sulfonyl-N-[3-[[2-(4-trifluoromethylphenyl)-5-methyloxazol-4-yl]methoxy]benzyl]amino]acetic acid]",2,218.1 ± 125.5,292.1 ± 24.7,24.3 ± 4.3,880 ± 273 UEq/l,47.3 ± 12.4,,"daily feed intake compared to the control group [2]: significantly reduced; GLU concentration compared to the control or positive control group [3]: much lower; LDL concentration ([3]; P<0.05): low; total changes in the glucose concentration represented by AUC compared to the control group ([4]; 2 g/kg glucose): much lower; glucose concentration during the fast compared to the control group [4]: significantly low; weight of subcutaneous fat [5]: reduced; weight of visceral fat [5]: reduced; adiposity index (fat weight/(body weight—fat weight)) ([5]; FIG. 4b): reduced; total fat weight ([5]; P<0.01, P<0.005, FIG. 4a): low"
"CC(C)OC(=O)C(C)(C)Oc1ccc(C(=O)c2ccc(Cl)cc2)cc1 [fenofibrate, reference compound]",,223.1 ± 77.2,280.5 ± 28.5,27.0 ± 4.7,"1,003 ± 80 UEq/l",49.4 ± 6.1,,
"CCN(CC)S(=O)(=O)N(CC(=O)O)Cc1ccc(OCCc2nc(-c3ccc(C)cc3)oc2C)cc1 [Example 101, [N—(N,N-diethylamino)sulfonyl-N-[4-[2-[2-(4-methylphenyl)-5-methyloxazol-4-yl]ethoxy]benzyl]amino]acetic acid]",4,,,,,,45,
"Cc1ccc(-c2nc(COc3cccc(CN([C@H](C(=O)O)C(C)C)S(=O)(=O)N(C)C)c3)c(C)o2)cc1 [Example 125, (S)-3-methyl-2-[N—(N,N-dimethylamino)sulfonyl-N-[3-[(5-methyl-2-p-tolyloxazol-4-yl)methoxy]benzyl]amino]butyric acid]",3,,,,,,22,
"C#CCN(C)S(=O)(=O)N(CC(=O)O)Cc1cccc(OCc2nc(-c3ccc(C(F)(F)F)cc3)oc2C)c1 [Example 10, [N—(N-methyl-N-propargylamino)sulfonyl-N-[3-[[2-(4-trifluoromethylphenyl)-5-methyloxazol-4-yl]methoxy]benzyl]amino]acetic acid]",3,,,,,,45,
"CCN(CC)S(=O)(=O)N(CC(=O)O)Cc1cccc(OCCc2nc(-c3ccc(C(F)(F)F)cc3)oc2C)c1 [Example 67, [N—(N,N-diethylamino)sulfonyl-N-[3-[2-[2-(4-trifluoromethylphenyl)-5-methyloxazol-4-yl]ethoxy]benzyl]amino]acetic acid]",2,,,,,,50,
"Cc1oc(-c2ccc(C(F)(F)F)cc2)nc1CCOc1cccc(CN(CC(=O)O)S(=O)(=O)N2CCCCC2)c1 [Example 71, [N-(piperidinyl)sulfonyl-N-[3-[2-[2-(4-trifluoromethylphenyl)-5-methyloxazol-4-yl]ethoxy]benzyl]amino]acetic acid]",2,,,,,,44,
"Cc1ccc(-c2nc(COc3cccc(CN(CCC(=O)O)S(=O)(=O)N(C)C)c3)c(C)o2)cc1 [Example 130, 3-[N—(N,N-dimethylamino)sulfonyl-N-[3-[(5-methyl-2-p-tolyloxazol-4-yl)methoxy]benzyl]amino]propionic acid]",4,,,,,,36,
"Cc1oc(-c2ccc(C(F)(F)F)cc2)nc1COc1cccc(CN(CC(=O)O)S(=O)(=O)N(C)C(C)C)c1 [Example 8, [N—(N-isopropyl-N-methylamino)sulfonyl-N-[3-[[2-(4-trifluoromethylphenyl)-5-methyloxazol-4-yl]methoxy]benzyl]amino]acetic acid]",4,,,,,,31,
